From patent US20140348861A1, “SYNTHETIC PEPTIDES AND RANDOM COPOLYMERS FOR THE TREATMENT OF AUTOIMMUNE DISORDERS” (NATIONAL INSTITUTE OF IMMUNOLOGY, priority 2011, published 2014)
Starred links: 1 amine or outer side, 2 acyl side, 3 side chain; linkers in the order of their positions; H or OH if unused. Non-standard residues stand in square brackets, D forms with d. No end group written: not given here. Kβ = L-β-lysine, O=C(C[C@H](CCCN[*:3])N[*:1])[*:2]; β3hA = C[C@H](N)CC(=O)O

System: SJL/J mice exhibiting MBP (85-109) induced relapsing remitting form of EAE
Experiment: Therapeutic activity in MBP (85-109) induced relapsing remitting EAE, treatment from day 11
Type: in vivo
Settings: SJL/J mice, RR EAE; for Therapeutic activity in comparison to GA (Therapeutic activity (Analogs) − Therapeutic activity GA) / Therapeutic activity in comparison to J5 (Therapeutic activity (Analogs) − Therapeutic activity (J5)): 0.1 mg daily for two weeks; for Therapeutic activity = % reduction in cumulative clinical disability score: synthetic peptides, 0.1 mg daily for two weeks from day 11 post-immunization
Method: SJL/J and C57BL6/J mice procured from Jackson's laboratory (Bar Harbor, Me.) were maintained under standard housing conditions in the central animal facility at NII as per institutional ethical committee guidelines. 8-10 week old female SJL/J mice were used throughout the study.
To induce RR EAE or chronic progressive EAE, SJL/J or C57BL6/J mice were immunized subcutaneously with 0.2 mg of MBP (85-109) or 0.1 mg MOG (35-55) emulsified in CFA and 200 ng of pertussis toxin was injected intraperitoneally on day 0 and day 2 so as to permeablize the blood brain barrier. All the animals in various experimental groups were scored daily for clinical disability on a scale of 0-6 where 0=no neurological symptoms, 1=limp tail, 2=weakness of hind limbs or ataxia, 3=incomplete paralysis of hind limbs, 4=complete paralysis of hind limbs, 5=complete paralysis of all four limbs, 6=dead. Diseased animals were provided easy access to food and water.
GA, J91, J92, S101, S102, S103 for two weeks and scored for clinical disability.

EKPKVEAYKAAAAPAβ [Analog S41]
Therapeutic activity in comparison to GA (Therapeutic activity (Analogs) − Therapeutic activity GA): 2.032% | Therapeutic activity in comparison to J5 (Therapeutic activity (Analogs) − Therapeutic activity (J5)): −1.925% | Therapeutic activity = % reduction in cumulative clinical disability score: 33.37%

EKPKVEAYKAAAAPAβ^3 [Analog S1]
Therapeutic activity in comparison to GA (Therapeutic activity (Analogs) − Therapeutic activity GA): 2.995% | Therapeutic activity in comparison to J5 (Therapeutic activity (Analogs) − Therapeutic activity (J5)): −0.9626% | Therapeutic activity = % reduction in cumulative clinical disability score: 34.33%

EKPKVEAYKAAAAPβ^3Aβ^3 [Analog S2]
Therapeutic activity in comparison to GA (Therapeutic activity (Analogs) − Therapeutic activity GA): 2.139% | Therapeutic activity in comparison to J5 (Therapeutic activity (Analogs) − Therapeutic activity (J5)): −1.818% | Therapeutic activity = % reduction in cumulative clinical disability score: 33.48%

EKPKVEAYKAAAAβPAβ [Analog S42]
Therapeutic activity in comparison to GA (Therapeutic activity (Analogs) − Therapeutic activity GA): 3.316% | Therapeutic activity in comparison to J5 (Therapeutic activity (Analogs) − Therapeutic activity (J5)): −0.6417% | Therapeutic activity = % reduction in cumulative clinical disability score: 34.65%

EKPKVEAYKAAAAβ^3Pβ^3Aβ^3 [Analog S3]
Therapeutic activity in comparison to GA (Therapeutic activity (Analogs) − Therapeutic activity GA): 5.027% | Therapeutic activity in comparison to J5 (Therapeutic activity (Analogs) − Therapeutic activity (J5)): 1.07% | Therapeutic activity = % reduction in cumulative clinical disability score: 36.36%

EKPKVEAYKAAAβAβPAβ [Analog S43]
Therapeutic activity in comparison to GA (Therapeutic activity (Analogs) − Therapeutic activity GA): 9.947% | Therapeutic activity in comparison to J5 (Therapeutic activity (Analogs) − Therapeutic activity (J5)): 5.989% | Therapeutic activity = % reduction in cumulative clinical disability score: 41.28%

EKPKVEAYKAAAβ^3Aβ^3Pβ^3Aβ^3 [Analog S4]
Therapeutic activity in comparison to GA (Therapeutic activity (Analogs) − Therapeutic activity GA): 4.492% | Therapeutic activity in comparison to J5 (Therapeutic activity (Analogs) − Therapeutic activity (J5)): 0.5348% | Therapeutic activity = % reduction in cumulative clinical disability score: 35.83%

EKPKVEAYKAAβAβAβPAβ [Analog S44]
Therapeutic activity in comparison to GA (Therapeutic activity (Analogs) − Therapeutic activity GA): 15.94% | Therapeutic activity in comparison to J5 (Therapeutic activity (Analogs) − Therapeutic activity (J5)): 11.98% | Therapeutic activity = % reduction in cumulative clinical disability score: 47.27%

EKPKVEAYKAAβ^3Aβ^3Aβ^3Pβ^3Aβ^3 [Analog S5]
Therapeutic activity in comparison to GA (Therapeutic activity (Analogs) − Therapeutic activity GA): 11.02% | Therapeutic activity in comparison to J5 (Therapeutic activity (Analogs) − Therapeutic activity (J5)): 7.059% | Therapeutic activity = % reduction in cumulative clinical disability score: 42.35%

EKPKVEAYKAβAβAβAβPAβ [Analog S45]
Therapeutic activity in comparison to GA (Therapeutic activity (Analogs) − Therapeutic activity GA): 23.53% | Therapeutic activity in comparison to J5 (Therapeutic activity (Analogs) − Therapeutic activity (J5)): 19.57% | Therapeutic activity = % reduction in cumulative clinical disability score: 54.87%

EKPKVEAYKβAβAβAβAβPAβ (EKPKVEAY[Kβ]XXXXPX; not fully specified (residues 10, 11, 12, 13, 15); printed as EKPKVEAYKβAβAβAβAβPAβ) [Analog S46]
Therapeutic activity in comparison to GA (Therapeutic activity (Analogs) − Therapeutic activity GA): 21.93% | Therapeutic activity in comparison to J5 (Therapeutic activity (Analogs) − Therapeutic activity (J5)): 17.97% | Therapeutic activity = % reduction in cumulative clinical disability score: 53.26%

EKPKVEAYKβ^3Aβ^3Aβ^3Aβ^3Aβ^3Pβ^3Aβ^3 [Analog S6]
Therapeutic activity in comparison to GA (Therapeutic activity (Analogs) − Therapeutic activity GA): 19.47% | Therapeutic activity in comparison to J5 (Therapeutic activity (Analogs) − Therapeutic activity (J5)): 15.51% | Therapeutic activity = % reduction in cumulative clinical disability score: 50.8%

EKPKVEAYβKβAβAβAβAβPAβ [Analog S47]
Therapeutic activity in comparison to GA (Therapeutic activity (Analogs) − Therapeutic activity GA): 20.96% | Therapeutic activity in comparison to J5 (Therapeutic activity (Analogs) − Therapeutic activity (J5)): 17.01% | Therapeutic activity = % reduction in cumulative clinical disability score: 52.3%

EKPKVEAYβ^3Kβ^3Aβ^3Aβ^3Aβ^3Aβ^3Pβ^3Aβ^3 [Analog S7]
Therapeutic activity in comparison to GA (Therapeutic activity (Analogs) − Therapeutic activity GA): 22.46% | Therapeutic activity in comparison to J5 (Therapeutic activity (Analogs) − Therapeutic activity (J5)): 18.5% | Therapeutic activity = % reduction in cumulative clinical disability score: 53.8%

EKPKVEAYβ^3Kβ^3Aβ^3Aβ^3Aβ^3Aβ^3Pβ^3Aβ^3 [Analog S8]
Therapeutic activity in comparison to GA (Therapeutic activity (Analogs) − Therapeutic activity GA): 23.85% | Therapeutic activity in comparison to J5 (Therapeutic activity (Analogs) − Therapeutic activity (J5)): 19.89% | Therapeutic activity = % reduction in cumulative clinical disability score: 55.19%

EKPKVEAβYβKβAβAβAβAβPAβ [Analog S48]
Therapeutic activity in comparison to GA (Therapeutic activity (Analogs) − Therapeutic activity GA): 22.89% | Therapeutic activity in comparison to J5 (Therapeutic activity (Analogs) − Therapeutic activity (J5)): 18.93% | Therapeutic activity = % reduction in cumulative clinical disability score: 54.2246%

EKPKVEAβ^3Yβ^3Kβ^3Aβ^3Aβ^3Aβ^3Aβ^3Pβ^3Aβ^3 [Analog S9]
Therapeutic activity in comparison to GA (Therapeutic activity (Analogs) − Therapeutic activity GA): 23.74% | Therapeutic activity in comparison to J5 (Therapeutic activity (Analogs) − Therapeutic activity (J5)): 19.79% | Therapeutic activity = % reduction in cumulative clinical disability score: 55.08%

EKPKVEβAβYβKβAβAβAβAβPAβ [Analog S49]
Therapeutic activity in comparison to GA (Therapeutic activity (Analogs) − Therapeutic activity GA): 18.93% | Therapeutic activity in comparison to J5 (Therapeutic activity (Analogs) − Therapeutic activity (J5)): 14.97% | Therapeutic activity = % reduction in cumulative clinical disability score: 50.27%

EKPKVEβ^3Aβ^3Yβ^3Kβ^3Aβ^3Aβ^3Aβ^3Aβ^3Pβ^3Aβ^3 [Analog S10]
Therapeutic activity in comparison to GA (Therapeutic activity (Analogs) − Therapeutic activity GA): 19.89% | Therapeutic activity in comparison to J5 (Therapeutic activity (Analogs) − Therapeutic activity (J5)): 15.94% | Therapeutic activity = % reduction in cumulative clinical disability score: 51.23%

EKPKVβEβAβYβKβAβAβAβAβPAβ [Analog S50]
Therapeutic activity in comparison to GA (Therapeutic activity (Analogs) − Therapeutic activity GA): −1.925% | Therapeutic activity in comparison to J5 (Therapeutic activity (Analogs) − Therapeutic activity (J5)): −5.882% | Therapeutic activity = % reduction in cumulative clinical disability score: 29.41%

EKPKVβ^3Eβ^3Aβ^3Yβ^3Kβ^3Aβ^3Aβ^3Aβ^3Aβ^3Pβ^3Aβ^3 [Analog S11]
Therapeutic activity in comparison to GA (Therapeutic activity (Analogs) − Therapeutic activity GA): 23.53% | Therapeutic activity in comparison to J5 (Therapeutic activity (Analogs) − Therapeutic activity (J5)): 19.57% | Therapeutic activity = % reduction in cumulative clinical disability score: 54.87%

EKPKβVβEβAβYβKβAβAβAβAβPAβ [Analog S51]
Therapeutic activity in comparison to GA (Therapeutic activity (Analogs) − Therapeutic activity GA): −4.92% | Therapeutic activity in comparison to J5 (Therapeutic activity (Analogs) − Therapeutic activity (J5)): −8.877% | Therapeutic activity = % reduction in cumulative clinical disability score: 26.42%

EKPKβ^3Vβ^3Eβ^3Aβ^3Yβ^3Kβ^3Aβ^3Aβ^3Aβ^3Aβ^3Pβ^3Aβ^3 [Analog S12]
Therapeutic activity in comparison to GA (Therapeutic activity (Analogs) − Therapeutic activity GA): 25.88% | Therapeutic activity in comparison to J5 (Therapeutic activity (Analogs) − Therapeutic activity (J5)): 21.93% | Therapeutic activity = % reduction in cumulative clinical disability score: 57.22%

EKPβ^3Kβ^3Vβ^3Eβ^3Aβ^3Yβ^3Kβ^3Aβ^3Aβ^3Aβ^3Aβ^3Pβ^3Aβ^3 [Analog S13]
Therapeutic activity in comparison to GA (Therapeutic activity (Analogs) − Therapeutic activity GA): 24.71% | Therapeutic activity in comparison to J5 (Therapeutic activity (Analogs) − Therapeutic activity (J5)): 20.75% | Therapeutic activity = % reduction in cumulative clinical disability score: 56.04%

EKβPKβVβEβAβYβKβAβAβAβAβPAβ [Analog S52]
Therapeutic activity in comparison to GA (Therapeutic activity (Analogs) − Therapeutic activity GA): −1.604% | Therapeutic activity in comparison to J5 (Therapeutic activity (Analogs) − Therapeutic activity (J5)): −5.5615% | Therapeutic activity = % reduction in cumulative clinical disability score: 29.73%

EKβ^3Pβ^3Kβ^3Vβ^3Eβ^3Aβ^3Yβ^3Kβ^3Aβ^3Aβ^3Aβ^3Aβ^3Pβ^3Aβ^3 [Analog S14]
Therapeutic activity in comparison to GA (Therapeutic activity (Analogs) − Therapeutic activity GA): 27.91% | Therapeutic activity in comparison to J5 (Therapeutic activity (Analogs) − Therapeutic activity (J5)): 23.96% | Therapeutic activity = % reduction in cumulative clinical disability score: 59.25%

EβKβPKβVβEAYβKβAβAβAβAβPAβ [Analog S54]
Therapeutic activity in comparison to GA (Therapeutic activity (Analogs) − Therapeutic activity GA): −1.6E−06% | Therapeutic activity in comparison to J5 (Therapeutic activity (Analogs) − Therapeutic activity (J5)): −3.957% | Therapeutic activity = % reduction in cumulative clinical disability score: 31.3369%

EβKβPKβVβEβAβYβKβAβAβAβAβPAβ [Analog S53]
Therapeutic activity in comparison to GA (Therapeutic activity (Analogs) − Therapeutic activity GA): 0.2139% | Therapeutic activity in comparison to J5 (Therapeutic activity (Analogs) − Therapeutic activity (J5)): −3.743% | Therapeutic activity = % reduction in cumulative clinical disability score: 31.5508%

EβKβPKβ^3Vβ^3Eβ^3AβYβ^3Kβ^3AβAβAβAβ^3PAβ [Analog S79]
Therapeutic activity in comparison to GA (Therapeutic activity (Analogs) − Therapeutic activity GA): 28.77% | Therapeutic activity in comparison to J5 (Therapeutic activity (Analogs) − Therapeutic activity (J5)): 24.81% | Therapeutic activity = % reduction in cumulative clinical disability score: 60.11%

EβKβPKβ^3Vβ^3Eβ^3AβYβ^3Kβ^3AβAβAβ^3Aβ^3PAβ [Analog S80]
Therapeutic activity in comparison to GA (Therapeutic activity (Analogs) − Therapeutic activity GA): 30.7% | Therapeutic activity in comparison to J5 (Therapeutic activity (Analogs) − Therapeutic activity (J5)): 26.74% | Therapeutic activity = % reduction in cumulative clinical disability score: 62.03%

Eβ^3Kβ^3Pβ^3Kβ^3Vβ^3EAYβ^3Kβ^3Aβ^3Aβ^3Aβ^3Aβ^3Pβ^3Aβ^3 [Analog S16]
Therapeutic activity in comparison to GA (Therapeutic activity (Analogs) − Therapeutic activity GA): 28.88% | Therapeutic activity in comparison to J5 (Therapeutic activity (Analogs) − Therapeutic activity (J5)): 24.92% | Therapeutic activity = % reduction in cumulative clinical disability score: 60.2139%

KVEAYK (Peptide analog) [Analog J5b, reference compound]
Therapeutic activity in comparison to GA (Therapeutic activity (Analogs) − Therapeutic activity GA): −10.9091% | Therapeutic activity in comparison to J5 (Therapeutic activity (Analogs) − Therapeutic activity (J5)): −14.8663% | Therapeutic activity = % reduction in cumulative clinical disability score: 20.43%

KVEAYKAAAA (Peptide analog) [Analog J5a, reference compound]
Therapeutic activity in comparison to GA (Therapeutic activity (Analogs) − Therapeutic activity GA): −2.995% | Therapeutic activity in comparison to J5 (Therapeutic activity (Analogs) − Therapeutic activity (J5)): −6.952% | Therapeutic activity = % reduction in cumulative clinical disability score: 28.34%

KVEAYKAAAAβ [Analog S55]
Therapeutic activity in comparison to GA (Therapeutic activity (Analogs) − Therapeutic activity GA): −2.781% | Therapeutic activity in comparison to J5 (Therapeutic activity (Analogs) − Therapeutic activity (J5)): −6.738% | Therapeutic activity = % reduction in cumulative clinical disability score: 28.56%

KVEAYKAAAAβ^3 (KVEAYKAAA[β3hA]) [Analog S17]
Therapeutic activity in comparison to GA (Therapeutic activity (Analogs) − Therapeutic activity GA): −2.032% | Therapeutic activity in comparison to J5 (Therapeutic activity (Analogs) − Therapeutic activity (J5)): −5.989% | Therapeutic activity = % reduction in cumulative clinical disability score: 29.3%
